From ChEMBL document CHEMBL1671643, “Relative strengths of the class 1 integron promoter hybrid 2 and the combinations of strong and hybrid 1 with an active p2 promoter” (2009)
In brackets after ≈: the same amount, converted by molar mass.

Tests used:
Type in all cases: functional
Escherichia coli [1] = assay: Antimicrobial activity against Escherichia coli MC4100 harboring a weak promoter in beta-lactamase GES-1 by Etest
Escherichia coli [2] = assay: Antimicrobial activity against Escherichia coli MC4100 harboring strong promoter in beta-lactamase GES-1 by Etest
Escherichia coli [3] = assay: Antimicrobial activity against Escherichia coli MC4100 harboring promoter hybrid 1 in beta-lactamase GES-1 by Etest
Escherichia coli [4] = assay: Antimicrobial activity against Escherichia coli MC4100 harboring promoter hybrid 2 in beta-lactamase GES-1 by Etest
Escherichia coli [5] = assay: Antimicrobial activity against Escherichia coli MC4100 harboring weak promoter and active promoter P2 in beta-lactamase GES-1 by Etest
Escherichia coli [6] = assay: Antimicrobial activity against Escherichia coli MC4100 harboring strong promoter and active promoter P2 in beta-lactamase GES-1 by Etest
Escherichia coli [7] = assay: Antimicrobial activity against Escherichia coli MC4100 harboring promoter hybrid 1 and active promoter P2 in beta-lactamase GES-1 by Etest
Escherichia coli [8] = assay: Antimicrobial activity against Escherichia coli MC4100 expressing promoterless beta-lactamase GES-1 by Etest

| SMILES | MIC (Escherichia coli [1]) [µg/mL] | MIC (Escherichia coli [2]) [µg/mL] | MIC (Escherichia coli [3]) [µg/mL] | MIC (Escherichia coli [4]) [µg/mL] | MIC (Escherichia coli [5]) [µg/mL] | MIC (Escherichia coli [6]) [µg/mL] | MIC (Escherichia coli [7]) [µg/mL] | MIC (Escherichia coli [8]) [µg/mL] |
| --- | --- | --- | --- | --- | --- | --- | --- | --- |
| C[C@H]1[C@H](NC(=O)/C(=N\OC(C)(C)C(=O)O)c2csc(N)n2)C(=O)N1S(=O)(=O)O [AZTREONAM] | 0.047 (≈ 0.108 µM) | 0.19 (≈ 0.436 µM) | 0.047 (≈ 0.108 µM) | 0.094 (≈ 0.216 µM) | 0.094 (≈ 0.216 µM) | 0.25 (≈ 0.574 µM) | 0.125 (≈ 0.287 µM) |  |
| CCN1CCN(C(=O)N[C@@H](C(=O)N[C@@H]2C(=O)N3[C@@H]2SC(C)(C)[C@@H]3C(=O)O)c2ccccc2)C(=O)C1=O [PIPERACILLIN] | 2 (≈ 3.86 µM) | 24 (≈ 46.4 µM) | 4 (≈ 7.73 µM) | 12 (≈ 23.2 µM) | 12 (≈ 23.2 µM) | 24 (≈ 46.4 µM) | 16 (≈ 30.9 µM) | 1 (≈ 1.93 µM) |
| N[C@@H](C(=O)N[C@@H]1C(=O)N2C(C(=O)O)=C(Cl)CS[C@H]12)c1ccccc1 [CEFACLOR ANHYDROUS] | 6 (≈ 16.3 µM) | 256 (≈ 696 µM) | 8 (≈ 21.8 µM) | 24 (≈ 65.3 µM) | 24 (≈ 65.3 µM) | 256 (≈ 696 µM) | 24 (≈ 65.3 µM) | 1.5 (≈ 4.08 µM) |
| CC(C)(O/N=C(\C(=O)N[C@@H]1C(=O)N2C(C(=O)[O-])=C(C[n+]3ccccc3)CS[C@H]12)c1csc(N)n1)C(=O)O [CEFTAZIDIME] | 0.75 (≈ 1.37 µM) | 12 (≈ 22 µM) | 1.5 (≈ 2.74 µM) | 4 (≈ 7.32 µM) | 4 (≈ 7.32 µM) | 16 (≈ 29.3 µM) | 6 (≈ 11 µM) | 0.064 (≈ 0.117 µM) |
| CO/N=C(\C(=O)N[C@@H]1C(=O)N2C(C(=O)[O-])=C(C[N+]3(C)CCCC3)CS[C@H]12)c1csc(N)n1 [CEFEPIME] | 0.032 (≈ 0.0666 µM) | 0.19 (≈ 0.395 µM) | 0.064 (≈ 0.133 µM) | 0.125 (≈ 0.26 µM) | 0.094 (≈ 0.196 µM) | 0.19 (≈ 0.395 µM) | 0.125 (≈ 0.26 µM) | 0.032 (≈ 0.0666 µM) |
| CC1(C)S[C@@H]2[C@H](NC(=O)[C@H](N)c3ccc(O)cc3)C(=O)N2[C@H]1C(=O)O [AMOXICILLIN] | > 256 | > 256 | > 256 | > 256 | > 256 | > 256 | > 256 | 4 (≈ 10.9 µM) |
| CO/N=C(\C(=O)N[C@@H]1C(=O)N2C(C(=O)O)=C(COC(N)=O)CS[C@H]12)c1ccco1 [CEFUROXIME] | 8 (≈ 18.9 µM) | > 256 | 32 (≈ 75.4 µM) | 128 (≈ 302 µM) | 96 (≈ 226 µM) | > 256 | 256 (≈ 603 µM) | 2 (≈ 4.71 µM) |
